# Measurements as given in BindingDB's records for patent US20240000767 (Bayer Aktiengesellschaft, 2024).
# Target: T1, Alpha-2C adrenergic receptor (Homo sapiens, UniProt P18825)
# T1 sequence (P18825 whole entry): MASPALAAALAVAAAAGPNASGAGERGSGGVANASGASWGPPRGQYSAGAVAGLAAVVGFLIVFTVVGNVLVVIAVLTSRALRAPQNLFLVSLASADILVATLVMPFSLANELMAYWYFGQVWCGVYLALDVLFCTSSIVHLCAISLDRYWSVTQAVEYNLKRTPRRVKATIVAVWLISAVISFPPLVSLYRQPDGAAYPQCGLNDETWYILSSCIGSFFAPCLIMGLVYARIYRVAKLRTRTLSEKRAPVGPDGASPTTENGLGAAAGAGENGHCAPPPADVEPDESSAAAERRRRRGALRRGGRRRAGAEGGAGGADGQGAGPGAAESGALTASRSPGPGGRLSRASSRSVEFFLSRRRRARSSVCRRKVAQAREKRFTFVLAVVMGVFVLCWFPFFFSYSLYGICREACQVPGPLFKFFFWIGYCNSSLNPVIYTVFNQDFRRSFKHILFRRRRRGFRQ
# Assay: In Vitro Radioligand Binding Assay
# Experimental: In Vitro Radioligand Binding Studies for Determination of the Dissociation Constants K1 at the Human Adrenoreceptor ADRA2C (Eurofins Panlabs Discovery Services, Taiwan, Ltd)A competition assay based on [3H] rauwolscine as radioliganden was used to determine the binding affinity of the test substances at the human ADRA2C receptor.To configure the competition assay, the equilibrium dissociation constant Kd of the radioligand [3H] rauwolscine was determined in a saturation experiment. To this end, homogenates of CHO-K1 cells recombinantly expressing the human ADRA2C receptor were incubated with increasing concentrations of the radiotracers for 1 h at 4° C. in binding buffer (50 mM Tris-HCl, 1 mM EDTA, pH 7.4). Unspecific binding was determined by addition of an excess of the not radioactively labelled ligand prazosin (10 μM). The radioactivity was determined in a scintiation counter.The competition experiments were carried out in the presence of 0.5 nM [3H] rauwolscine and increasing concentrations of the test substances to be characterized under the conditions described above.
row,Structure (SMILES),IC50 [µM]
1,"C[C@@H]1CCCN(C2CCN(c3ncc(C(=O)NCc4cc(C(F)(F)F)ccn4)s3)CC2)C1 [US20240000767, Example 18]",6.8
2,"C[C@@H]1CCCN(C2CCN(c3nc(Br)c(C(=O)NCc4ncc(F)cc4F)s3)CC2)C1 [US20240000767, Example 119]",0.03
